In US20250303359A1, “COMPOUNDS AND METHODS FOR SAFE MITIGATION OF OCEAN ACIDIFICATION AND CAPTURE OF ATMOSPHERIC CARBON DIOXIDE” (Negative Emissions Materials, Inc., priority 2022, published 2025):
Where two headings read alike, the source gives them in different places.

Assays:
[1] = system: Tetraselmis suecica cultures; settings: hydroxide additions equivalent to 1 and 10 mg/L of Mg(OH)2, 6-day period
Tetraselmis suecica = settings: for survival after six days of regrowth/culture: 1 hour exposure to 100 g/L Mg(OH)2, 200 g/L NaOH or 100 g/L Ca(OH)2, dilution to 10 mg/L, 6 days; for surviving cells immediately after dilution: 1 hour exposure to 200 g/L NaOH or 100 g/L Ca(OH)2, then dilution to 10 mg/L
Tisbe battaglial [2] = settings: acute, 48 h, n = 1; Mg(OH)2 mixed as paste into local seawater
[3] = Sinking rate of Mg(OH)2 in seawater; format: physicochemical
Tisbe battaglial [4] = settings: chronic, 7 days, n = 1; Mg(OH)2 mixed as paste into local seawater
Danio rerio = settings: acute, 96 h, n = 1; Mg(OH)2 paste
[5] = system: Skeletonema pseudocastatum

For `[Ca+2].[OH-].[OH-]` [Ca(OH)2, calcium hydroxide], the “ecotoxicity (growth inhibition)” value [1] was “not ecotoxic”, the “survival after six days of regrowth/culture” value (from here on “survival … of regrowth/culture”) (Tetraselmis suecica) was “very few living cells” and the “surviving cells immediately after dilution” value (Tetraselmis suecica) was “no surviving cells”.
In the case of `[Mg+2].[OH-].[OH-]` [Mg(OH)2, magnesium hydroxide], the “ecotoxicity (growth inhibition)” value [1] is reported as “not ecotoxic”, the “Lowest observed effect concentration (LOEC)” value (Tisbe battaglial [2]) is reported as 100 mg/L and the “lowest tested concentration showing some toxicity effect on aquatic organisms” value (aquatic organisms; all standard test organisms) is reported as 50 mg/L. The “concentration at which no toxicity effect was observed” value (aquatic organisms; any of the standard test organisms) was 25000 ng/mL, the “pH of solution in seawater” value (0.05 g/L Mg(OH)2, after 115 minutes mixing (300 rpm), still increasing) was 9.04 and the “mixing time to full dissolution of particles” value (concentrations below ~10 mg/L, 60 m deep seawater pH 7.9-8.0, approx. 22 °C, 300 rpm) was “approximately 3 hours”. The “maximum pH achieved” value (seawater, depends on Mg(OH)2 concentration) was about 9.5, the sinking rate ([3]; added as powder, visible particles (>100 μm)) was 0.8-6 km/day and the particle size distribution ([3]; added to seawater as paste) was 5-60 μm. The sinking rate ([3]; small particles of about 10 micron, based on 4 cm sinking within 10 minutes, LISST instrument) was about 6 m/day, the “Lowest observed effect concentration (LOEC)” value (Tisbe battaglial [4]) was over 100 mg/L and the “Lowest observed effect concentration (LOEC)” value (Danio rerio) was over 100 mg/L. The “survival … of regrowth/culture” value (Tetraselmis suecica) was “no mortality”, the “mortality compared to the control water” value (Tetraselmis suecica; less than 10 hours of exposure to 100 g/L prior to dilution to 10 mg/L, survival six days after) was “no mortality” and the “dosage showing no negative impact” value ([5]; standardized ecotoxicity work) was 25 mg/L. For the same compound, the “dosages showing negative impact” value ([5]; standardized ecotoxicity work) was at least 50 mg/L and the “Lowest observed effect concentration (LOEC)” value ([5]; sub-chronic, 72 h, n = 2, Mg(OH)2 mixed as paste into local seawater) was 50 mg/L.
For sodium hydroxide [NaOH], the “survival … of regrowth/culture” value (Tetraselmis suecica) was “no surviving organisms” and the “surviving cells immediately after dilution” value (Tetraselmis suecica) was “no surviving cells”.
